Measurements from paper PMC10610505, “Synthesis and Biological Evaluation of Some New 3-Aryl-2-thioxo-2,3-dihydroquinazolin-4(1H)-ones and 3-Aryl-2-(benzylthio)quinazolin-4(3H)-ones as Antioxidants; COX-2, LDHA, α-Glucosidase and α-Amylase Inhibitors; and Anti-Colon Carcinoma and Apoptosis-Inducing Agents” (Pharmaceuticals, 2023).
Where “and” joins values, the source holds several entries; their conditions need not be identical. Equal entries are not always repeated.

Tests used:
[1] = target: purified recombinant human LDHA protein (Homo sapiens, UniProt P00338); experiment: Lactate dehydrogenase A (LDHA) inhibitory assay; type: biochemical
Experimental: The LDHA inhibitory effectiveness was investigated by measuring the amounts of consumed NADH [73]. […] The fluorescence of NADH, which has an excitation wavelength of 340 nm and an emission wavelength of 460 nm, was detected using a spectrofluorometer. […] The LDHA inhibitory efficiency was expressed as an inhibition percentage, which was determined via a comparison with the negative control experiments.

[2] = system: LoVo human colon carcinoma cells; experiment: Viability assay (LDH release), LoVo; type: cell-based
Experimental: (§1) The anticancer activities of all the synthesized compounds were assessed against two human colon carcinoma cell lines, namely LoVo and HCT-116 (Table 6), via the determination of the mean percents of the viable cancerous cells remaining after being incubated with 200 µg/mL of each test compound for 48 h using LDH assay.
(§2) The samples were diluted in Dulbecco’s Modified Eagle’s Medium, consisting of 10% fetal bovine serum (FBS), added to cells grown and cultured for 24 h in a 5% CO2-humidified incubator at 37 °C. Thereafter, the activity of lactate dehydrogenase released from damaged cells was determined in the collected supernatant aliquots using an ELISA end-point assay (Benchmark Plus, Bio-Rad, CA, USA); 0.1% Triton X-100 in the assay medium and the assay medium only were used as the positive and negative controls, respectively. Cell viability was expressed as a relative percentage of the OD values (at 550 nm) for compound-treated cells (final concentration of 200 µg /mL) and the negative control, which was shown as the mean % ± SD (n = 3). The results of the viability assays for the potential cytotoxic candidates were compared with the % of viable human umbilical vein endothelial cells (HUVEC) at the same concentration. These cells were grown in Dulbecco’s Modified Eagle’s Medium (PAN-Biotech; Barcelona, Spain) containing 10% FBS (Sigma Aldrich; St. Quentin-Fallavier, France), 2 mM Glutamine (Sigma Aldrich), 100 units/mL penicillin and […] streptomycin (Life Technologies; Paisley, UK).

α-amylase = experiment: In vitro α-amylase (AA) inhibition assay; conditions: mean ± SD of three replicates
Experimental: Then, 180 µL of Labtest (the amylase substrate) was added and the samples were incubated for 8 min, followed by measuring the first reaction at 620 nm to obtain (X1). Afterwards, the reaction mixture was incubated for an additional 5 min at 37 °C; then, the second reaction was measured to obtain the final reading (X2). […] The results were expressed as IC50 µg/mL (as well as µM) and were determined from the standard curves.

[3] = system: HCT-116 human colon carcinoma cells; experiment: Viability assay (LDH release), HCT-116; type: cell-based
Experimental: as §1, §2

COX-2 = target: T1, COX-2 (Homo sapiens, UniProt P35354); experiment: COX-2 inhibitory screening assay (Cayman kit); type: biochemical
T1 construct: purchased Cayman Chemical Company 701080
T1 sequence (P35354 18-604): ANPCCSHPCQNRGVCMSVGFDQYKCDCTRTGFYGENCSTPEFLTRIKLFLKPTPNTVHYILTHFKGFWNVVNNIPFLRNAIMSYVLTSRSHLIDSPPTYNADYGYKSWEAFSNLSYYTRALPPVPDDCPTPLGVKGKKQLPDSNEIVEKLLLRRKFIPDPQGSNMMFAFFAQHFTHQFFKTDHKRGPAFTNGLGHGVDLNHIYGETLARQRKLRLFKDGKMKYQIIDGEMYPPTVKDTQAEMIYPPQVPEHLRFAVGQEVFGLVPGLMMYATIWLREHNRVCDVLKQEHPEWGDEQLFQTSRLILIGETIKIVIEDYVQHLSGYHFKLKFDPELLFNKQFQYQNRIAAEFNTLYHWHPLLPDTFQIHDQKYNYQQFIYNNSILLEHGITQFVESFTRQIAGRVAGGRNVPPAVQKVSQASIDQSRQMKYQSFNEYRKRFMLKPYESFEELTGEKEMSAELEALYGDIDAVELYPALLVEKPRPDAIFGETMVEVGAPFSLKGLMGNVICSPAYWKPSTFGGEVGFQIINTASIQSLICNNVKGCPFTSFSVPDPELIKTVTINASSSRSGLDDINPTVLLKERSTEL
Experimental: Each compound of the two series, 3a–h and 5a–h, was resuspended in 100% DMSO at a final concentration of 10 mg/mL. […] Briefly, 10 µL of the tested compound was added to a mixture of the reaction buffer solution (160 µL of 0.1 M Tris-HCl, pH 8.0, in the presence of 2 mM phenol and 5 mM EDTA), COX-2 (10 µL) and heme (10 µL). After a 10 min incubation at 37 °C, the reaction was started by adding arachidonic acid (10 µL), rapidly mixed and kept at 37 °C for 2 min. PGF2α generated via PGH2 reduction with stannous chloride (30 µL) was incubated at room temperature for 5 min. The PGF2α amount was then determined via an enzyme immunoassay. Prior to incubation with the COX-2 reaction (at room temperature 18 h), the 96-well plate was previously coated with a mouse anti-rabbit monoclonal antibody. Unbound reagents were removed by washing the plate followed by adding Ellman’s reagent to the well. The reaction product displaying a distinct yellow color was measured at 410 nm using a UV microplate reader. The % inhibition was calculated by comparing the PGF2α produced in the compound-treated samples with a control sample, using the following equation: % inhibition is equal to [([PGF2α]control − [PGF2α]sample) /[PGF2α ]control ] × 100. […] The COX-2 inhibitory efficiency was expressed as an inhibition percentage, which was determined via a comparison with the negative control experiments.

[4] = target: α-glucosidase enzyme from Saccharomyces Cerevisiae (Saccharomyces cerevisiae, UniProt P53341); experiment: In vitro α-glucosidase (AG) inhibitory activity; conditions: mean ± SD of three replicates
Experimental: Then, the reaction was allowed to start by adding 150 µL of the color reagent 4-NPGP and the resulting mixture was incubated for additional 15 min at 37 °C. Collectively, the colorimetric assay medium contained 2U of α-glucosidase, 5 mM of 4-NPGP and 10 mM of the potassium phosphate buffer with a pH of 6.9. […] The inhibitory efficiency of each compound was expressed as IC50 µg/mL (as well as µM), which was calculated from the corresponding calibration curve.

[5] = DPPH radical scavenging assay; type: biochemical
Text: In principle, the antioxidant power of a compound in this assay is correlated to its tendency to reduce the stable, purple-colored DPPH radical through a hydrogen atom transfer (HAT) mechanism and/or a single electron transfer mechanism, thereby converting it to the yellow-colored 2,2-diphenyl-1-picrylhydrazine, whereby this reduction is accompanied by a depletion in the amount of the initial DPPH radicals and a change in the absorbance of the test solution accordingly, which can be detected relative to the blank solution at λ = 517 nm.
The antioxidant potencies of all synthesized compounds were investigated using a 1,1 diphenyl-2-picrylhydrazyl (DPPH) radical scavenging assay according to the protocol described by Bersuder et al.. In brief, a 0.5 mL volume of DPPH ethanolic solution was mixed with an equal volume of each sample concentration (i.e., the test compound or butylated hydroxytoluene, BHT, which was used as the reference antioxidant in the positive control experiment), shaken strongly, and incubated at room temperature for 1 h in darkness. The absorbance of the residual DPPH radicals was measured at λ = 519 nm and compared to the negative control (without the test compound or reference antioxidant). The DPPH radical scavenging power was calculated using the following formula: scavenging efficiency (%) = (1 − Acompound/AControl) × 100, where Acompound and Acontrol are the absorbance of the tested compound and the negative control, respectively. […] Additionally, the ± SD values were calculated from three independent triplicate measurements.

[6] = system: non-tumoral human umbilical vein endothelial cells (HUVEC); experiment: Viability assay (LDH release), HUVEC; type: cell-based; conditions: Homo sapiens, HUVEC
Experimental: as §2

[7] = Viability assay (LDH release), HUVEC; type: cell-based, human; conditions: human, human umbilical vein endothelial cells (HUVEC); 200 µg/mL; read-out: Mean % of viable cells ± SD, HUVEC
Experimental: as §2

[8] = % inhibition at 0.200 mg/mL divided by % inhibition at 0.100 mg/mL

Chain of α-glucosidase enzyme from Saccharomyces Cerevisiae (P53341 whole entry): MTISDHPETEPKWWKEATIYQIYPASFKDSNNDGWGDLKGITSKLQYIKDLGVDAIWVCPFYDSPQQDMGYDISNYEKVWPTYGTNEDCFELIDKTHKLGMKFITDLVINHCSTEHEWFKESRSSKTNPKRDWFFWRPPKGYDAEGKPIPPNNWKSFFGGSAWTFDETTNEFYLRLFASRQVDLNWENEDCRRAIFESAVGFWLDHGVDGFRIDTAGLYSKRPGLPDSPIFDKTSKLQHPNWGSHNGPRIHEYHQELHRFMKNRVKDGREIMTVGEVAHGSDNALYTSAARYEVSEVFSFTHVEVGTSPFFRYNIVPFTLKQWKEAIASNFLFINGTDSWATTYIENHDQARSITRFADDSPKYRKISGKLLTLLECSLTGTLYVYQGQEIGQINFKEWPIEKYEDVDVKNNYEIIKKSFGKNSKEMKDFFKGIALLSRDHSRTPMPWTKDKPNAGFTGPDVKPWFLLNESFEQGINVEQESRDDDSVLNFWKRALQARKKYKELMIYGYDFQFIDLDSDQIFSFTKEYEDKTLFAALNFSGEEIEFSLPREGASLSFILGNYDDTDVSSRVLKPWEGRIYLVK

O=c1c2cc(Cl)ccc2nc(SCc2ccc(Cl)cc2)n1-c1ccc(C(F)(F)F)cc1 [Compound 5d, 2-(4-Chloro-benzylsulfanyl)-6-chloro-3-(4-trifluoromethyl-phenyl)-3H-quinazolin-4-one]
Fold change of LDHA inhibition as compared to 0.1 mg/mL [1, 8]: 1.47 fold
LDHA mean % inhibition ± SD ([1]; at 0.1 mg/mL): 13.850 ± 2.051%
LDHA mean % inhibition ± SD ([1]; at 0.2 mg/mL): 20.400 ± 1.980%
Mean % of viable cells ± SD, LoVo ([2]; 200 µg/mL, 48 h): 76.000 ± 1.732%
Mean IC50 α-Amylase (AA) (α-amylase): 181.667 ± 5.508 µg/mL
IC50 (α-amylase; read-out: Mean IC50 α-Amylase (AA)): 377 µM
Mean % of viable cells ± SD, HCT-116 ([3]; 200 µg/mL, 48 h): 86.667 ± 1.528%
Increase in COX-2 inhibitory efficiency by duplicating the concentration (COX-2; [8]): 1.68 fold
COX-2 mean % inhibition ± SD (COX-2; at 0.100 mg/mL): 26.300 ± 1.839%
COX-2 mean % inhibition ± SD (COX-2; at 0.200 mg/mL): 44.050 ± 1.344%
Mean IC50 α-Glucosidase (AG) [4]: 38.100 ± 0.656 µg/mL
IC50 ([4]; read-out: Mean IC50 α-Glucosidase (AG)): 79.2 µM
Mean IC50 for scavenging initial DPPH radicals ([5]; mean ± SD of three replicates): 200 ± 28 µg/mL
IC50 ([5]; mean ± SD, converted from mg/mL, read-out: Mean IC50 for scavenging initial DPPH radicals (converted)): 416 µM

O=c1[nH]cc(F)c(=O)[nH]1 [Compound 5-FU, 5-Fluorouracil, reference compound]
Selectivity index (IC50 normal cell / IC50 cell line), LoVo ([2]; HUVEC vs LoVo): 102.577
IC50 ([2]; Homo sapiens, LoVo, from concentration–response curves): 2.91 µg/mL and 22.4 µM
IC50 [6]: 298 µg/mL and 2.29 mM
viability at 200 µg/mL [7]: 57.3 ± 2.52%
Selectivity index (IC50 normal cell / IC50 cell line), HCT-116 ([3]; HUVEC vs HCT-116): 25.190
IC50 ([3]; Homo sapiens, HCT-116, from concentration–response curves): 11.8 µg/mL and 91.1 µM
